US10881108B2, “Method of protecting field corn from damage by a plant pathogen” (SUMITOMO CHEMICAL COMPANY, LIMITED, priority 2019, dated 2021)

What was measured:
Format in all cases: in vivo
Cercospora zeae-maydis [1] = test: Seed dipping, then grey leaf spot inoculation; plant length of aerial part; details: seed dipping 0.2 mg per seed, 200 g per hectare; for Plant length in treatment plot (A) / Treatment/control ratio (100 × A/B): 7 days from inoculation
Protocol: Seeds of three varieties of field corn were separately dipped in a mefentrifluconazole dilution liquid (prepared by diluting an aqueous suspension concentrate of mefentrifluconazole with water) so that the amount of mefentrifluconazole to be applied to each seed might be 0.2 mg. Then, the field corn seeds were sown to a pot filled with a soil at a sowing rate of 1,000,000 seeds per hectare. That is, the application rate of mefentrifluconazole was 200 g per hectare. Each field corn was incubated in a greenhouse for 12 days from the sowing, and then a pathogen of grey leaf spot (Cercospora zeae-maydis) was inoculated to the foliage of each field corn. Each field corn was incubated in a greenhouse for 7 days from the inoculation, and then plant length of the aerial part of each field corn was measured. The plant length is referred to as ‘the plant length in treatment plot’. As a control experiment, the same procedure was repeated except that dipping treatment with mefentrifluconazole dilution liquid and the inoculation of the pathogen were not conducted. The plant length obtained in the control experiment is referred to as ‘the plant length in control plot’. The same procedure of the example 4 was repeated except for replacing three varieties of field corn with a variety of popcorn, and two varieties of waxy corn.

Cercospora zeae-maydis [2] = test: Foliar spray on potted corn, then grey leaf spot inoculation; fresh weight of aerial part; details: foliar spray 500 g per hectare, 14 days from inoculation
Protocol: Field corn is sown to a pot filled with a soil. It is incubated for 7 days in a greenhouse. Mefentrifluconazole spray liquid (prepared by diluting an aqueous suspension concentrate of mefentrifluconazole with water) is uniformly sprayed onto the foliage of field corn at the amount of 200 L per hectare so that the application rate of mefentrifluconazole may be 500 g per hectare. On the next day of the spraying, a pathogen of grey leaf spot (Cercospora zeae-maydis) is inoculated to the foliage of field corn. The field corn is incubated in a greenhouse for 14 days from the inoculation, and then fresh weight of the aerial part of the field corn is measured. It is confirmed that the fresh weight is equivalent to that of the control where field corn is not treated with mefentrifluconazole and the pathogen is not inoculated (no-treatment-no-inoculation control) and is bigger than that of the control where field corn is not treated with mefentrifluconazole and the pathogen is inoculated (no-treatment-inoculation control). The same procedure of the example 1 is repeated except for replacing field corn with popcorn, sweet corn, or waxy corn. It is confirmed that the fresh weight of popcorn, sweet corn, or waxy corn is smaller than that of the corresponding no-treatment-no-inoculation control and is equivalent to that of the corresponding no-treatment-inoculation control.

Cercospora zeae-maydis [3] = test: Seed coating, then grey leaf spot inoculation; fresh weight of aerial part; details: seed coating 0.2 mg per seed, 20 g per hectare, 14 days from inoculation
Protocol: Seeds of field corn are coated with a mefentrifluconazole aqueous suspension concentrate so that the amount of mefentrifluconazole to be applied to each seed may be 0.2 mg. Then, the field corn seeds are sown to a pot filled with a soil at a sowing rate of 100,000 seeds per hectare. That is, the application rate of mefentrifluconazole is 20 g per hectare. Then, the field corn is incubated in a greenhouse for 10 days, followed by inoculating a pathogen of grey leaf spot (Cercospora zeae-maydis) to the foliage of field corn. The field corn is incubated in a greenhouse for 14 days from the inoculation, and then the fresh weight of the aerial part of the field corn is measured. It is confirmed that the fresh weight is equivalent to that of the control where field corn is not treated with mefentrifluconazole and the pathogen is not inoculated (no-treatment-no-inoculation control) and is bigger than that of the control where field corn is not treated with mefentrifluconazole and the pathogen is inoculated (no-treatment-inoculation control). The same procedure of the example 2 is repeated except for replacing field corn with popcorn, sweet corn, or waxy corn. It is confirmed that the fresh weight of popcorn, sweet corn, or waxy corn is smaller than that of the corresponding no-treatment-no-inoculation control and is equivalent to that of the corresponding no-treatment-inoculation control.

Cercospora zeae-maydis [4] = test: Dripping onto primary leaf, then grey leaf spot inoculation; fresh weight of aerial part; details: dripped onto primary leaf 0.2 mg per plant, 200 g per hectare, 14 days from inoculation
Protocol: Field corn is sown to a pot filled with a soil at a sowing rate of 1,000,000 seeds per hectare. The field corn is incubated for 10 days in a greenhouse, and then mefentrifluconazole dilution liquid (prepared by diluting an aqueous suspension concentrate of mefentrifluconazole with water) is dripped onto the primary leaf of field corn so that the amount of mefentrifluconazole to be applied to each plant may be 0.2 mg. That is, the application rate of mefentrifluconazole is 200 g per hectare. On the next day of the application, a pathogen of grey leaf spot (Cercospora zeae-maydis) is inoculated to the foliage of field corn. The field corn is incubated in a greenhouse for 14 days from the inoculation, and then fresh weight of the aerial part of the field corn is measured. It is confirmed that the fresh weight is equivalent to that of the control where field corn is not treated with mefentrifluconazole and the pathogen is not inoculated (no-treatment-no-inoculation control) and is bigger than that of the control where field corn is not treated with mefentrifluconazole and the pathogen is inoculated (no-treatment-inoculation control). The same procedure of the example 3 is repeated except for replacing field corn with popcorn, sweet corn, or waxy corn. It is confirmed that the fresh weight of popcorn, sweet corn, or waxy corn is smaller than that of the corresponding no-treatment-no-inoculation control and is equivalent to that of the corresponding no-treatment-inoculation control.

Cercospora zeae-maydis [5] = test: Dripping onto first leaf, then grey leaf spot inoculation; plant length of aerial part; details: 100 g per hectare; for Plant length in treatment plot (A) / Treatment/control ratio (100 × A/B): dripped onto first leaf 0.1 mg per plant, 7 days from inoculation; for protection from the damage by the pathogen: dripped onto first leaf
Protocol: Four varieties of field corn were sown to a pot filled with a soil at a sowing rate of 1,000,000 seeds per hectare. Then each field corn was incubated for 7 days in a greenhouse. A mefentrifluconazole dilution liquid (prepared by diluting an aqueous suspension concentrate of mefentrifluconazole with water) is dripped onto the first leaf of field corn plants so that the amount of mefentrifluconazole to be applied to each plant might be 0.1 mg. That is, the application rate of mefentrifluconazole was 100 g per hectare. Five days after the application, a pathogen of grey leaf spot (Cercospora zeae-maydis) was inoculated to the foliage of each field corn. Each field corn was incubated in a greenhouse for 7 days from the inoculation, and then plant length of the aerial part of each field corn was measured. The plant length is referred to as ‘the plant length in treatment plot’. As a control experiment, the same procedure was repeated except that dripping treatment with mefentrifluconazole dilution liquid and the inoculation of the pathogen were not conducted. The plant length obtained in the control experiment is referred to as ‘the plant length in control plot’. The same procedure of the example 5 was repeated except for replacing four varieties of field corn with two varieties of popcorn, a variety of sweet corn, and two varieties of waxy corn.

[6] = popcorn, sweet corn, or waxy corn

## CC(O)(Cn1cncn1)c1ccc(Oc2ccc(Cl)cc2)cc1C(F)(F)F (stereo not drawn) [mefentrifluconazole]
Cercospora zeae-maydis [1]; Field corn/DKC5632
  Plant length in treatment plot (A): 58 cm
  Treatment/control ratio (100 × A/B): 95
Cercospora zeae-maydis [1]; Field corn/Koshu
  Plant length in treatment plot (A): 63 cm
  Treatment/control ratio (100 × A/B): 105
Cercospora zeae-maydis [1]; Field corn/MAS40F
  Plant length in treatment plot (A): 61 cm
  Treatment/control ratio (100 × A/B): 97
Cercospora zeae-maydis [1]; Popcorn/Yuki-pop
  Plant length in treatment plot (A): 45 cm
  Treatment/control ratio (100 × A/B): 80
Cercospora zeae-maydis [1]; Waxy corn/Ki-mochi
  Plant length in treatment plot (A): 30 cm
  Treatment/control ratio (100 × A/B): 70
Cercospora zeae-maydis [1]; Waxy corn/Shiro-mochi
  Plant length in treatment plot (A): 51 cm
  Treatment/control ratio (100 × A/B): 86
Cercospora zeae-maydis [1]; Tables 1 and 2
  protection of field corns compared with popcorn or waxy corns: protected much more effectively
Cercospora zeae-maydis [2]; field corn
  fresh weight of the aerial part compared with no-treatment-inoculation control: bigger
  fresh weight of the aerial part compared with no-treatment-no-inoculation control: equivalent
Cercospora zeae-maydis [2]; [6]
  fresh weight compared with no-treatment-inoculation control: equivalent
  fresh weight compared with no-treatment-no-inoculation control: smaller
Cercospora zeae-maydis [3]; field corn
  fresh weight of the aerial part compared with no-treatment-inoculation control: bigger
  fresh weight of the aerial part compared with no-treatment-no-inoculation control: equivalent
Cercospora zeae-maydis [3]; [6]
  fresh weight compared with no-treatment-inoculation control: equivalent
  fresh weight compared with no-treatment-no-inoculation control: smaller
Cercospora zeae-maydis [4]; field corn
  fresh weight of the aerial part compared with no-treatment-inoculation control: bigger
  fresh weight of the aerial part compared with no-treatment-no-inoculation control: equivalent
Cercospora zeae-maydis [4]; [6]
  fresh weight compared with no-treatment-inoculation control: equivalent
  fresh weight compared with no-treatment-no-inoculation control: smaller
Cercospora zeae-maydis [5]; Field corn/DKC5632
  Plant length in treatment plot (A): 63 cm
  Treatment/control ratio (100 × A/B): 103
Cercospora zeae-maydis [5]; Field corn/Koshu
  Plant length in treatment plot (A): 65 cm
  Treatment/control ratio (100 × A/B): 108
Cercospora zeae-maydis [5]; Field corn/MAS40F
  Plant length in treatment plot (A): 64 cm
  Treatment/control ratio (100 × A/B): 102
Cercospora zeae-maydis [5]; Field corn/Pioneer 2088
  Plant length in treatment plot (A): 62 cm
  Treatment/control ratio (100 × A/B): 103
Cercospora zeae-maydis [5]; Popcorn/Maru-pop
  Plant length in treatment plot (A): 45 cm
  Treatment/control ratio (100 × A/B): 80
Cercospora zeae-maydis [5]; Popcorn/Yuki-pop
  Plant length in treatment plot (A): 53 cm
  Treatment/control ratio (100 × A/B): 84
Cercospora zeae-maydis [5]; Sweet corn/Rancher 82
  Plant length in treatment plot (A): 31 cm
  Treatment/control ratio (100 × A/B): 91
Cercospora zeae-maydis [5]; Waxy corn/Ki-mochi
  Plant length in treatment plot (A): 29 cm
  Treatment/control ratio (100 × A/B): 67
Cercospora zeae-maydis [5]; Waxy corn/Shiro-mochi
  Plant length in treatment plot (A): 43 cm
  Treatment/control ratio (100 × A/B): 73
Cercospora zeae-maydis [5]; each field corn (four varieties), Table 3
  protection from the damage by the pathogen: successfully protected
Cercospora zeae-maydis [5]; popcorns, sweet corn and waxy corns, Table 4
  protection from the damage by the pathogen: not successfully protected
